Laboratory results: PMC9646841, “A bead-based GPCR phosphorylation immunoassay for high-throughput ligand profiling and GRK inhibitor screening” (Communications Biology, 2022)
Several values for one entry are separate records, joined by “and”; a condition that tells them apart may be missing. Identical values can stand only once. Like-named read-outs stand apart in the source and are kept apart here.

Assays:
CB2 cannabinoid receptor [1] = biological target: T1, CB2 cannabinoid receptor (Homo sapiens, UniProt P34972); test: pT338/pT339-CB2 7TM phosphorylation assay; type: cell-based; settings: for pT338/pT339-CB2 phosphorylation (OD405): raw duplicate readings
T1 construct: host or cells: HEK293 (CB2-HEK293)

CB2 cannabinoid receptor [2] = biological target: T1, CB2 cannabinoid receptor; test: pS335/pS336-CB2 7TM phosphorylation assay; type: cell-based; settings: for pS335/pS336 (CB2 Phosphorylation Assay): raw duplicate readings
[3] = system: MOP (GIRK2 channel activation); test: GIRK channel membrane potential assay (G protein signaling); type: cell-based, mouse; settings: for values normalised to 1µM DAMGO, mean: mean of replicates; for values normalised to 1µM DAMGO (individual values): single replicate values
Protocol: To analyze Gi signaling, changes in membrane potential produced by activation of G protein-gated inwardly rectifying potassium channel (GIRK) were measured as previously described[50],[51]. HEK293 cells were stably transfected with HA-MOP and GFP-conjugated GIRK2 channel plasmids (OriGene). The cells were then seeded in 96-well plates and allowed to grow at 37 °C in 5% CO2 for 48 h. […] A membrane potential dye (FLIPR Membrane Potential kit BLUE, Molecular Devices R8034) was reconstituted according to the manufacturer’s instructions. To each well, 90 μl of the HBSS/HEPES buffer solution and an equal volume of the membrane potential dye were added to a final volume of 180 μl per well. The cells were then incubated at 37 °C for 45 min. Test compounds were prepared in buffer solution containing HBSS and 20 mM HEPES solution (pH 7.4) at tenfold the final concentration to be measured. […] Baseline readings were taken every 1.8 s for 1 min. […] The change in dye fluorescence was recorded for 240 s with SoftMax Pro 5.4 software. Peak fluorescence values were obtained after subtraction of baseline readings for each sample and then used to calculate concentration–response curves using Origin.

MOP, GRK2 = MOP, GRK2 (Mus musculus, UniProt P42866); settings: for GRK2 recruitment, normalised: normalized to 10 µM DAMGO
Protocol: Agonist-dependent binding of GRK2/3 and arrestin1/2 to a MOP was determined using a β-galactosidase complementation assay as previously described[47]. […] Cells were plated in 48-well plates and grown for 48 h. After 60 min of agonist exposure, a cell lysis reagent was added, and luminescence was recorded with a FlexStation 3 microplate reader (Molecular Devices).

MOP = biological target: T2, MOP (Mus musculus, UniProt P42866); test: [3H]DAMGO saturation binding, MOP-HEK293 membranes
T2 construct: host or cells: HEK293 (Control-HEK293 or GRK-knockout clones), stably transfected

WT-HEK293 cells = test: [3H]DAMGO saturation binding, WT-HEK293 (native) membranes

T2 sequence (P42866 whole entry): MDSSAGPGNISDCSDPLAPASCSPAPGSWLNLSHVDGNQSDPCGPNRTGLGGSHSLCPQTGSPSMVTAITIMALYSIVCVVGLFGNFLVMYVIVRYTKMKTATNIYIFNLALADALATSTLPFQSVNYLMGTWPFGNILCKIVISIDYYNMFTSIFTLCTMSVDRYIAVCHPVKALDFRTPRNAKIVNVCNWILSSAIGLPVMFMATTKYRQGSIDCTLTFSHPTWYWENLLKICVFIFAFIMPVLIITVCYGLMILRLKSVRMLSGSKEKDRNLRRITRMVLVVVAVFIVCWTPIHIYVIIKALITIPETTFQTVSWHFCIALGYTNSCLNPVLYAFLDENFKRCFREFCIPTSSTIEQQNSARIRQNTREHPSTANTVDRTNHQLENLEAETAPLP
Chain of MOP, GRK2 (P25098 whole entry): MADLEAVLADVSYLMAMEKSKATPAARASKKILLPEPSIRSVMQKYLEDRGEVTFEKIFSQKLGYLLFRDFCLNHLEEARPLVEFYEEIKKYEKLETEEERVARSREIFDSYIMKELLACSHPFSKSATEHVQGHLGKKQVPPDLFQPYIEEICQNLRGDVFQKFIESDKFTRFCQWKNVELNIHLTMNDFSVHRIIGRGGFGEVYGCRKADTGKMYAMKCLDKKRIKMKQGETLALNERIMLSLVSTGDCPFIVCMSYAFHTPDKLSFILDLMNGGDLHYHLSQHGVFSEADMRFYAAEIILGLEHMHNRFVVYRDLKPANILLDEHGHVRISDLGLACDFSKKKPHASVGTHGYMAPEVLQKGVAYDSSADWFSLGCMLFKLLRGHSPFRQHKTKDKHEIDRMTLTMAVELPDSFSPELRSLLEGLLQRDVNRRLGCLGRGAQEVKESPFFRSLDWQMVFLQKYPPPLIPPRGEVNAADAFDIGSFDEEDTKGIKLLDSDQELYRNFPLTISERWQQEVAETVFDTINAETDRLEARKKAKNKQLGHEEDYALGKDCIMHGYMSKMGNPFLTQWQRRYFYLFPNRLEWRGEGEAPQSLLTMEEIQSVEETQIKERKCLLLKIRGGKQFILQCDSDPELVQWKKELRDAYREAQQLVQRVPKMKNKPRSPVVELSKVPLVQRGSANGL
Chain of MOP, GRK2 (P42866 whole entry): as the sequence (P42866 whole entry) above
T1 sequence (P34972 whole entry): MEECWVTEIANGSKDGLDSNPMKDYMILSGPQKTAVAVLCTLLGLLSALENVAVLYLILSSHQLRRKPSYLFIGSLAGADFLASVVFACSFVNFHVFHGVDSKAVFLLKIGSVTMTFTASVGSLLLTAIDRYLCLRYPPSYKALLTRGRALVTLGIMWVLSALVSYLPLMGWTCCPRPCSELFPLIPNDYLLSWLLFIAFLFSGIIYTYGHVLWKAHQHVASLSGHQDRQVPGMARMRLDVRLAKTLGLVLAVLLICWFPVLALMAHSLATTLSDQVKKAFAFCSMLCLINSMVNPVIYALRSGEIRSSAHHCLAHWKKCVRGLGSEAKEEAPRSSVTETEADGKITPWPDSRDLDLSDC

## CCCCCCC(C)(C)c1ccc([C@@H]2C[C@H](O)CC[C@H]2CCCO)c(O)c1 [CP55940]
CB2 cannabinoid receptor [1]
  OD405 max pT338/pT339-CB2: 1.74
CB2 cannabinoid receptor [1]; CP55940 0.01 µM
  pT338/pT339-CB2 phosphorylation (OD405): 0.418 and 0.427 and 0.4081 and 0.4835 and 0.513
CB2 cannabinoid receptor [1]; CP55940 0.1 µM
  pT338/pT339-CB2 phosphorylation (OD405): 0.4372 and 0.4959 and 0.4415 and 0.4741 and 0.5035 and 0.468
CB2 cannabinoid receptor [1]; CP55940 0.3 µM
  pT338/pT339-CB2 phosphorylation (OD405): 0.4559 and 0.4962 and 0.7064 and 0.6812
CB2 cannabinoid receptor [1]; CP55940 1 µM
  pT338/pT339-CB2 phosphorylation (OD405): 0.467 and 0.4332 and 0.3917 and 0.4407 and 0.4084 and 0.4786
CB2 cannabinoid receptor [1]; CP55940 3 µM
  pT338/pT339-CB2 phosphorylation (OD405): 0.4766 and 0.4184 and 0.4965 and 0.6601
CB2 cannabinoid receptor [1]; CP55940 10 µM
  pT338/pT339-CB2 phosphorylation (OD405): 1.4013 and 1.5745 and 1.5305
CB2 cannabinoid receptor [1]; CP55940 30 µM
  pT338/pT339-CB2 phosphorylation (OD405): 1.5241
CB2 cannabinoid receptor [1]; CP55940 100 µM
  pT338/pT339-CB2 phosphorylation (OD405): 1.603 and 1.5834 and 1.3626
CB2 cannabinoid receptor [2]
  OD405 min pS335/pS336-CB2: 0.38
CB2 cannabinoid receptor [2]; CP55940 1e-6 µM
  pS335/pS336 (CB2 Phosphorylation Assay): 0.4195 and 0.458 and 0.3421
CB2 cannabinoid receptor [2]; CP55940 1e-5 µM
  pS335/pS336 (CB2 Phosphorylation Assay): 0.3429 and 0.4547 and 0.4707 and 0.3409 and 0.3589 and 0.38
CB2 cannabinoid receptor [2]; CP55940 0.0001 µM
  pS335/pS336 (CB2 Phosphorylation Assay): 0.3452 and 0.3952 and 0.4236 and 0.425 and 0.3513 and 0.3869
CB2 cannabinoid receptor [2]; CP55940 0.001 µM
  pS335/pS336 (CB2 Phosphorylation Assay): 0.3318 and 0.3924 and 0.4101 and 0.3997 and 0.3583
CB2 cannabinoid receptor [2]; CP55940 0.1 µM
  pS335/pS336 (CB2 Phosphorylation Assay): 0.8954
CB2 cannabinoid receptor [2]; CP55940 1 µM
  pS335/pS336 (CB2 Phosphorylation Assay): 1.0018 and 0.9312 and 1.0017 and 0.8185
CB2 cannabinoid receptor [2]; CP55940 10 µM
  pS335/pS336 (CB2 Phosphorylation Assay): 0.9538 and 0.8534

## C[C@@H](NC(=O)[C@@H](N)Cc1ccc(O)cc1)C(=O)NCC(=O)N(C)[C@@H](Cc1ccccc1)C(=O)NCCO [DAMGO, [D-Ala^2,N-MePhe^4,Gly-ol]-enkephalin]
[3]
  pEC50 GIRK: 8.9
[3]; 1pM ligand
  values normalised to 1µM DAMGO, mean: 5.028
  values normalised to 1µM DAMGO (individual values): 5.593 and 7.859 and 3.46 and 5.717 and 7.582 and 8.1092 and 3.374 and 6.042 and 4.849 and 0.5787 and 7.292 and 5.88 and 8.096 and 0.05434 and -0.3462 and 6.3053
[3]; 10pM ligand
  values normalised to 1µM DAMGO, mean: 7.472
  values normalised to 1µM DAMGO (individual values): 15.49 and 11.6111 and 4.26 and 2.279 and 5.498 and 3.993 and 8.348 and 9.984 and 18.2069 and 4.03 and 10.8569 and 5.742 and 4.237 and 3.526 and 0.4892 and 11.0085
[3]; 100pM ligand
  values normalised to 1µM DAMGO, mean: 9.137
  values normalised to 1µM DAMGO (individual values): 16.8969 and 12.3538 and 1.282 and -0.5086 and 23.733 and 7.982 and 12.165 and 15.3952 and 18.3102 and 7.555 and 2.414 and 2.004 and 6.703 and 3.838 and 4.846 and 11.227
[3]; 1nM ligand
  values normalised to 1µM DAMGO, mean: 50.7802
  values normalised to 1µM DAMGO (individual values): 57.1798 and 57.3562 and 19.6942 and 27.9023 and 58.4493 and 49.8324 and 71.4212 and 70.7134 and 62.495 and 60.2954 and 56.8628 and 49.7728 and 53.0466 and 27.1278 and 35.6907 and 54.6435
[3]; 5nM ligand
  values normalised to 1µM DAMGO, mean: 92.3187
[3]; 10nM ligand
  values normalised to 1µM DAMGO, mean: 95.5035
[3]; 50nM ligand
  values normalised to 1µM DAMGO, mean: 101.174
[3]; 100nM ligand
  values normalised to 1µM DAMGO, mean: 99.3452
  values normalised to 1µM DAMGO (individual values): 100.4 and 100.34 and 112.066 and 111.922
[3]; 0.5µM ligand
  values normalised to 1µM DAMGO, mean: 99.405
  values normalised to 1µM DAMGO (individual values): 99.2581 and 100.369 and 110.848 and 112.015 and 90.6195 and 92.807 and 98.2073 and 99.2624 and 100.349 and 111.9 and 110.485 and 68.4902 and 89.9215 and 98.2442 and 106.456 and 101.247
[3]; 1µM DAMGO, one value per experiment
  DAMGO 1µM signal in RFU: 38.399 RFU and 40.2317 RFU and 34.405 RFU and 46.8468 RFU and 42.8267 RFU and 41.1246 RFU and 35.6065 RFU and 41.2536 RFU
[3]; 1µM ligand
  values normalised to 1µM DAMGO, mean: 100
  values normalised to 1µM DAMGO (individual values): 102.126 and 101.322 and 95.8603 and 104.14 and 98.9994 and 101.001 and 101.569 and 98.4312 and 97.8738 and 109.455 and 90.5448 and 97.309 and 102.691 and 100.145 and 99.8548 and 98.6775
MOP, GRK2; agonist 0.01 µM
  GRK2 recruitment, raw value: 1.0365 and 0.9786 and 1.1651 and 0.7672
MOP, GRK2; agonist 0.1 µM
  GRK2 recruitment, raw value: 1.7391 and 1.2836 and 1.7883 and 1.2791
MOP, GRK2; agonist 1 µM
  GRK2 recruitment, raw value: 3.3164 and 2.1606 and 3.0001 and 2.3217
  GRK2 recruitment, normalised: 102.84% and 51.53% and 88.80% and 58.68%
MOP, GRK2; agonist 10 µM
  GRK2 recruitment, raw value: 3.4288 and 3.1599 and 2.7372 and 3.6836
  GRK2 recruitment, normalised: 107.83% and 95.89% and 77.13% and 119.15%
MOP, GRK2; agonist 100 µM
  GRK2 recruitment, raw value: 3.2449 and 4.0099 and 3.3544 and 3.8787
  GRK2 recruitment, normalised: 99.67% and 133.63% and 104.53% and 127.81%

## CN1CC[C@]23c4c5ccc(O)c4O[C@H]2[C@@H](O)C=C[C@H]3[C@H]1C5 [Morphine, morphine]
[3]; 1pM ligand
  values normalised to 1µM DAMGO, mean: 6.485
[3]; 10pM ligand
  values normalised to 1µM DAMGO, mean: 6.027
[3]; 100pM ligand
  values normalised to 1µM DAMGO, mean: 6.211
[3]; 1nM ligand
  values normalised to 1µM DAMGO, mean: 9.125
[3]; 5nM ligand
  values normalised to 1µM DAMGO, mean: 29.6678
  values normalised to 1µM DAMGO (individual values): 45.7495 and 19.0875 and 13.0961 and 9.052 and 36.1933 and 47.9074 and 51.2561 and 57.2816 and 46.4485 and 43.1943 and 26.9461 and 14.2883 and 14.2724 and 18.5122 and 18.46 and 12.9399
[3]; 10nM ligand
  values normalised to 1µM DAMGO, mean: 57.2564
  values normalised to 1µM DAMGO (individual values): 58.6156 and 56.0883 and 35.9476 and 44.5152 and 64.4335 and 68.3763 and 70.0077 and 70.5635 and 61.8308 and 50.7811 and 68.4527 and 63.2893 and 55.6505 and 50.3141 and 38.9941 and 58.2419
[3]; 50nM ligand
  values normalised to 1µM DAMGO, mean: 66.3769
  values normalised to 1µM DAMGO (individual values): 62.166 and 62.2926 and 44.6191 and 54.7318 and 72.3421 and 70.8947 and 81.0497 and 84.3524 and 69.6407 and 82.417 and 82.3952 and 62.9287 and 75.1596 and 38.3592 and 49.3923 and 69.2894
[3]; 100nM ligand
  values normalised to 1µM DAMGO, mean: 74.2194
  values normalised to 1µM DAMGO (individual values): 89.3793 and 68.637 and 62.5767 and 14.9163 and 86.9174 and 89.8616 and 87.7405 and 94.4167 and 90.0012 and 88.0147 and 94.1235 and 58.569 and 65.3044 and 67.2492 and 54.6739 and 75.1284
[3]; 0.5µM ligand
  values normalised to 1µM DAMGO, mean: 76.9579
  values normalised to 1µM DAMGO (individual values): 87.9206 and 64.7531 and 55.8615 and 55.3841 and 81.7364 and 84.8283 and 97.4763 and 95.5436 and 86.95 and 86.0094 and 85.8902 and 63.7515 and 63.5249 and 73.9389 and 76.3702 and 71.3871
[3]; 1µM ligand
  values normalised to 1µM DAMGO, mean: 72.8983
  values normalised to 1µM DAMGO (individual values): 75.501 and 68.3564 and 51.865 and 76.6338 and 75.1014 and 79.046 and 83.5821 and 81.3432 and 80.3317 and 85.1376 and 62.4253 and 66.1705 and 66.7508 and 75.1369 and 66.0921

## C[C@@H](NC(=O)[C@@H](N)Cc1ccc(O)cc1)C(=O)NCC(=O)N(C)[C@@H](Cc1ccccc1)C(=O)NCCO [[3H]DAMGO]
MOP; 25°C, 60 min
  Bmax: 2279 ± 19 fmol/mg protein
MOP; concentration 0.05 nM
  saturation binding, mean, HEK293-MOP-HA: 173.5
MOP; concentration 2.05 nM
  saturation binding, mean, HEK293-MOP-HA: 1520.4
MOP; concentration 2.57 nM
  saturation binding, mean, HEK293-MOP-HA: 1621.54
MOP; concentration 4.21 nM
  saturation binding, mean, HEK293-MOP-HA: 1763.3
MOP; concentration 5.23 nM
  saturation binding, mean, HEK293-MOP-HA: 2020.39
WT-HEK293 cells; concentration 0.05 nM
  saturation binding, mean, HEK293-native: 2.17
WT-HEK293 cells; concentration 2.05 nM
  saturation binding, mean, HEK293-native: 2.19
WT-HEK293 cells; concentration 2.57 nM
  saturation binding, mean, HEK293-native: 14.32
WT-HEK293 cells; concentration 4.21 nM
  saturation binding, mean, HEK293-native: 26.91
WT-HEK293 cells; concentration 5.23 nM
  saturation binding, mean, HEK293-native: 41.11
